From patent publication US20240300886A1, “ARYLCYCLOHEXYLAMINE DERIVATIVES AND THEIR USE IN THE TREATMENT OF PSYCHIATRIC DISORDERS” (GILGAMESH PHARMACEUTICALS, INC., priority 2021, published 2024) come the findings set out here.

Series [1] is described as follows: Stability in liver microsomes (Example 21), Gottingen minipig. It is filed as in vitro ADME. Conditions: male, pH 7.4, 0.5 mg/mL protein. On the procedure:
(§1) General Procedure. Briefly, test compounds (final concentration 1 μM) were incubated in duplicate with liver microsomes from male animals of the indicated species (final protein concentration 0.5 mg/mL) in 50 mM sodium phosphate buffer (pH 7.4) with or without NADPH (1 mM). Total incubation volume was 500 μL. At 0, 5, 15, 30, and 60 min, aliquots of 50 μL were withdrawn, quenched with acetonitrile (150 μL), and analyzed for parent compound remaining using a fit-for-purpose LC-MS/MS method. Intrinsic clearance and half-life were calculated. Clearance values below zero were rounded to zero.

The nature of series [2]: Stability in liver microsomes (Example 21), CD-1 mouse. It is filed as in vitro ADME. Conditions: male, pH 7.4, CD-1 Mouse liver microsomes, 0.5 mg/mL protein. On the procedure:
as §1
For orientation: Liver microsomes are vesicles of endoplasmic reticulum, rich in cytochrome P450 enzymes.

A short description of series [3]: Stability in liver microsomes (Example 21), SD rat. It is filed as in vitro ADME. Conditions: male, pH 7.4, 0.5 mg/mL protein. On the procedure:
as §1

For series [4], the target named is serotonin transporter (SERT) (Homo sapiens (Human), UniProt P31645). In words: SERT competition radioligand binding ([3H]imipramine). The note with it: Human recombinant (CHO cells), 2.0 nM [3H]imipramine. The method, then:
Disclosed compounds were tested for their binding affinity at the serotonin transporter (SERT) using a competition radioligand binding assay (Eurofins Cerep). Assay conditions are described in Table 16 below.

Series [5] is described as follows: Comparative oral pharmacokinetics of 2R, 2S and 2-F-DCK in mice. The class given is in vivo, C57BL/6 mice. Conditions: 10 mg/kg po; for half-life: read-out: t1/2 (po). On the procedure:
Animals. Male C57BL/6 mice were used in these studies. Aminals were randomly assigned to treatment groups and were fasted for 4 h before dosing.
Drugs. Test compounds were dissolved in a vehicle consisting of normal saline, They were then administered orally (po) at a dose of 10 mg/kg (calculated based on freebase) and at a volume of 10 mL/kg body weight.
Sample Collection and Bioanalysis. Blood samples (approximately 60 μL) were collected under light isoflurane anesthesia (Surgivet®) from the retro orbital plexus at 0.08, 0.25, 0.5, 1, 2, 4, 8, and 24 h (4 animals per time point). Immediately after blood collection, plasma was harvested by centrifugation at 4,000 rpm for 10 min at 4° C. and samples were stored at −70±10° C. until bioanalysis. Following blood collection, animals were immediately sacrificed, the abdominal vena-cava was cut open, and the whole body was perfused from the heart using 10 mL of normal saline, and brain samples were collected from all animals. After isolation, brain samples were rinsed three times in ice-cold normal saline (for 5-10 seconds/rinse using ˜5-10 mL normal saline in disposable petri dish for each rinse) and dried on blotting paper. Brain samples were homogenized using ice-cold phosphate-buffered saline (pH 7.4). Total homogenate volume was three times the tissue weight. All homogenates were stored at −70±10° C. until bioanalysis. For bioanalysis, 25 μL aliquots of plasma/brain study samples or spiked plasma/brain calibration standards were added to individual pre-labeled micro-centrifuge tubes followed by 100 μL of an internal standard solution (glipizide, 500 ng/mL in acetonitrile) except for blanks, where 100 μL of acetonitrile was added. Samples were vortexed for 5 minutes and then centrifuged for 10 minutes at 4,000 rpm at 4° C. Following centrifugation, 100 μL of each clear supernatant was transferred to a 96 well plate and analyzed with a fit-for-purpose LC-MS/MS method, with authentic samples of each analyte used for calibration and identification.
Data Analysis. Pharmacokinetic parameters were estimated using the non-compartmental analysis tool of Phoenix® WinNonlin software (Ver 8.0).

The nature of series [6]: Stability in liver microsomes (Example 21), cynomolgus monkey. The note with it: male, pH 7.4, 0.5 mg/mL protein. The class given is in vitro ADME. On the procedure:
as §1

Series [7] is described as follows: Stability in liver microsomes (Example 21), beagle dog. The class given is in vitro ADME. The note with it: male, pH 7.4, 0.5 mg/mL protein. The method, then: as §1
For series [8], the target named is recombinant human NMDA receptor (GRIN1/GRIN2B) (Homo sapiens (Human), UniProt Q05586+Q13224). In words: Unblocking kinetics at the NMDA receptor in Xenopus laevis oocytes (two-electrode voltage clamp). The class given is cell-based. Conditions: compounds applied at 3×IC50, -70 mV, n ≥ 5. On the procedure:
Compounds 2R, 2S, and 2-(2-fluorophenyl)-2-(methylamino)cyclohexan-1-one 2-F-DCK were tested for unblocking kinetics at the NMDA receptor in Xenopus laevis oocytes expressing recombinant human NMDA receptor (GRIN1/GRIN2B) (Table 22).
Experimental Procedure. Oocytes were harvested from adult Xenopus laevis and incubated in 96 well plates for two to four days prior to recordings. Plasmids containing cDNA encoding for human NMDA receptor subunits GRIN1 and GRIN2B were transcribed using the mMessage mMachine T7 transcription kit (Ambion, USA). The Roboocyte automated injection system was used for injection of cRNA coding for hNMDA receptor subunits at a concentration of 100 ng/μL per subunit. Oocytes were clamped to a holding potential of −70 mV and induced currents after compound application were sampled at 200 Hz at room temperature. Agonist induced currents were recorded with a two-electrode voltage clamp. To determine the unblocking kinetics, glutamate and glycine (3 and 10 μM, respectively) were applied to the oocytes and the current recorded for 90 s. Then, compounds were applied at 3×IC50 for 120 s and the currents recorded.
(In general: In two-electrode clamp one electrode senses voltage and the other passes current.)

Like-named read-outs stand apart in the source and are kept apart here.

Sequence of recombinant human NMDA receptor (GRIN1/GRIN2B) (Q13224 whole entry, looked up, other chains not shown): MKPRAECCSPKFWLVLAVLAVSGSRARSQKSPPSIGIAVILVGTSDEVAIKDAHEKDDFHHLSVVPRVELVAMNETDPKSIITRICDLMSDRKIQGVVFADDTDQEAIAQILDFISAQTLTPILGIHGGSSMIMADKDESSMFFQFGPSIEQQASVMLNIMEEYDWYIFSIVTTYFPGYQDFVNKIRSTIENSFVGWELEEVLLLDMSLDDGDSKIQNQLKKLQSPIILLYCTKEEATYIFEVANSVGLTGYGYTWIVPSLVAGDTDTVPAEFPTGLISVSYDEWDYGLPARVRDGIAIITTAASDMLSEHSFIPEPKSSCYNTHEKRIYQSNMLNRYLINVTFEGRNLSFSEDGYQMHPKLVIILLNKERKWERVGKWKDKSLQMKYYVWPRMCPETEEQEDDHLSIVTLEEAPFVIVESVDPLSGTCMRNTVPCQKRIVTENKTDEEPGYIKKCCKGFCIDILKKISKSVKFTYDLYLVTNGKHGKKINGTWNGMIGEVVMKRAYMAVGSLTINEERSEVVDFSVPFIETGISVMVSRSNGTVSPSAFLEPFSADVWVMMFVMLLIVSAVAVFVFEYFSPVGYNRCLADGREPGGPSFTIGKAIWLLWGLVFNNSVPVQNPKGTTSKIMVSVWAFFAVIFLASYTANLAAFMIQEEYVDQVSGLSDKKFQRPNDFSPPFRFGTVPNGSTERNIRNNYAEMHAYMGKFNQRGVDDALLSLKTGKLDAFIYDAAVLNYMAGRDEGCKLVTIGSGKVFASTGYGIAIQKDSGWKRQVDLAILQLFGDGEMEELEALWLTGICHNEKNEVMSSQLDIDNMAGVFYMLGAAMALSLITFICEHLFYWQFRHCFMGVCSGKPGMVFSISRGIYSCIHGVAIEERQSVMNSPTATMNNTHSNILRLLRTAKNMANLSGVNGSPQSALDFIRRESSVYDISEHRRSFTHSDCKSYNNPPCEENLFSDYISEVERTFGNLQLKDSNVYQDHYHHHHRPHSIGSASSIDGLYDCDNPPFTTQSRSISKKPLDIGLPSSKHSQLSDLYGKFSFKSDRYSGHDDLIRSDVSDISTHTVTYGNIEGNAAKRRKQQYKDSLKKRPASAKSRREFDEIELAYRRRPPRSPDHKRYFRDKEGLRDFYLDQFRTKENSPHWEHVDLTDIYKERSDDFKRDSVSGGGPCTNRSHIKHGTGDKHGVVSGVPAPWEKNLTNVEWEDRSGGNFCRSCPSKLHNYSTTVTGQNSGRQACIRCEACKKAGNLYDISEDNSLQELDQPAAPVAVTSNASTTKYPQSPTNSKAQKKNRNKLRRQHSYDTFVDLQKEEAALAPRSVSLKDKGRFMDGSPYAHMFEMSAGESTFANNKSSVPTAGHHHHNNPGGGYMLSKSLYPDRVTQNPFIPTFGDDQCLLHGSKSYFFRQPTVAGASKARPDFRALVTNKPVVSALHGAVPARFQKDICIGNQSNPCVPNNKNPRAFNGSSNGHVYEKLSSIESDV

A word on the microsomal CLint: it is the capacity of the preparation to metabolise the compound, expressed as a volume cleared per time. By Ki is commonly meant a dissociation constant, usually derived from enzyme kinetics or from competition with a known ligand. One may read the Cmax as the maximum level reached in the sampled fluid or tissue. On to `CNC1(c2ccccc2F)CCCCC1=O` (stereo not shown) [Compound 2-F-DCK, 2-(2-fluorophenyl)-2-(methylamino)cyclohexan-1-one, reference compound], for which the microsomal CLint at 1 μM in series [1] is 56.2 µL/min/mg; in series [2] it was 10.9 µL/min/mg; in series [3], 111 µL/min/mg; in series [6] it was 212 µL/min/mg; in series [7], 30 µL/min/mg. Moreover, the Ki in series [4] stood at 40 µM. Also, the Cmax in series [5] (male, C57BL/6, mouse brain) came out at 1670 ng/g; in series [5] (male, C57BL/6, mouse plasma) it was 1960 ng/mL. For the same compound, the half-life in series [5] (male, C57BL/6, mouse brain) was determined as 41 min; in series [5] (male, C57BL/6, mouse plasma), 69 min. In addition, in series [5] (male, C57BL/6, mouse plasma, read-out: AUC0-last (po) (converted)), the AUC(0-t) is 1150 ng·h/mL. The “AUC0-last (po)” value in series [5] (mouse brain) was 59119 ng·min/g. In series [8], the “Unblocking T1/2 ± SEM” value was determined as 1.44 ± 0.21 min.
